ChEMBL document CHEMBL1128205, “Design and synthesis of conformationally constrained analogues of 4-(3-butoxy-4-methoxybenzyl)imidazolidin-2-one (Ro 20-1724) as potent inhibitors of cAMP-specific phosphodiesterase” (J Med Chem, 1995)

The compounds below were run against 3',5'-cyclic-AMP phosphodiesterase 4B (Homo sapiens, UniProt Q07343) (assay: Inhibition of human Phosphodiesterase 4B).
Sequence of 3',5'-cyclic-AMP phosphodiesterase 4B (Q07343 whole entry): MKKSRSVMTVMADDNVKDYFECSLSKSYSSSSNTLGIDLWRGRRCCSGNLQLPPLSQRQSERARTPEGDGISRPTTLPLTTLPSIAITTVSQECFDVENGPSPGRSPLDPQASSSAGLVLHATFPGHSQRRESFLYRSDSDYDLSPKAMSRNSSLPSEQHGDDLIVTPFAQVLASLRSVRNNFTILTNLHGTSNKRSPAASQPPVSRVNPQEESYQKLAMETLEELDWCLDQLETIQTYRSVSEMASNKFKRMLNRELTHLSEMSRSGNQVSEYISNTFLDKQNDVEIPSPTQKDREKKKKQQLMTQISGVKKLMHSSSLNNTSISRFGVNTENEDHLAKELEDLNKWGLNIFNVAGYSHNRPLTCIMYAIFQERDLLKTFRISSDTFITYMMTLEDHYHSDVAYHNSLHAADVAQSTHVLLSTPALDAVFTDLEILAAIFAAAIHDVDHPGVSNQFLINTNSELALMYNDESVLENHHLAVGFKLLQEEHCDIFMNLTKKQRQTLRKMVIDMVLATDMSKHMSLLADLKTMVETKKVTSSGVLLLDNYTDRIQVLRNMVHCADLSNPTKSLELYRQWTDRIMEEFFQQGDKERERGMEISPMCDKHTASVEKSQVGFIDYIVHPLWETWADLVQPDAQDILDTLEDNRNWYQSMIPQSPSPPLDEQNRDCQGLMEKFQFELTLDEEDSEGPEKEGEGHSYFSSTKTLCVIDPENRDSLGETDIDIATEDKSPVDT

| Structure (SMILES) | Ki [nM] |
| --- | --- |
| COc1ccc([C@H]2CCN3C(=O)NC[C@@H]23)cc1OC1CCCC1 | 583 |
| COc1ccc([C@H]2CCN3C(=O)NC[C@H]23)cc1OC1CCCC1 | 27 |
| COc1ccc(CC2CNC(=O)N2)cc1OC1CCCC1 (stereo not given) | 447 |

Now from value to compound:

| Ki [nM] | Structure (SMILES) |
| --- | --- |
| 282 | COc1ccc([C@H]2CCN3C(=O)OC[C@@H]23)cc1OC1CCCC1 |
| 63 | COc1ccc([C@H]2CCN3C(=O)CC[C@H]23)cc1OC1CCCC1 |
| 70 | COc1ccc([C@H]2CCN3C(=O)OC[C@H]23)cc1OC1CCCC1 |
| 338 | COc1ccc([C@H]2CCN3C(=O)CC[C@@H]23)cc1OC1CCCC1 |

Species: Homo sapiens
Test: Inhibition of LPS-induced TNF-alpha secretion from purified human peripheral blood monocytes
Format: functional

| IC50 [nM] | Structure (SMILES) |
| --- | --- |
| 1800 | CCCCOc1cc(CC2CNC(=O)N2)ccc1OC (stereo not given) [RO-201724] |
| 320 | COc1ccc(C2CNC(=O)C2)cc1OC1CCCC1 (stereo not given) [ROLIPRAM] |

| Structure (SMILES) | IC50 [nM] |
| --- | --- |
| COc1ccc([C@H]2CCN3C(=O)NC[C@H]23)cc1OC1CCCC1 | 290 |
